In patent US8426447B2, “Spiro-tricyclic ring compounds as beta-secretase modulators and methods of use” (Amgen Inc., priority 2008, dated 2013):

Assays:
BACE1 [1] = biological target: T1, BACE1 (Homo sapiens, UniProt P56817); experiment: In Vitro Enzymatic BACE FRET (Fluorescence Resonance Energy Transfer) Assay; type: biochemical; conditions: read-out: BACE1 FRET assay
Method in brief: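 Acetate buffer at pH 4.2 with 10% DMSO and 100 uM genapol hosts the enzymatic reaction, initiated by 50 nM FRET substrate and allowed to proceed one hour. Tris quench to neutral pH precedes the fluorescence measurement.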

BACE1 [2] = biological target: T1, BACE1; experiment: In Vitro BACE Cell-based Assay (HEK cell assay): Aβ40 in conditioned medium of cells stably expressing Amyloid Precursor Protein, sandwich ELISA; conditions: read-out: HEK cell assay
Method in brief: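 Read-out is time-resolved fluorescence of Aβ40 in supernatant, captured by pAb40 and detected with biotinylated 6E10 plus Streptavidin-Europium. Cells stably expressing APP received compounds for 24 h over 10 concentrations starting at 100 μM or 10 μM, final DMSO 0.1%.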

T1 sequence (P56817 46-501, species assumed): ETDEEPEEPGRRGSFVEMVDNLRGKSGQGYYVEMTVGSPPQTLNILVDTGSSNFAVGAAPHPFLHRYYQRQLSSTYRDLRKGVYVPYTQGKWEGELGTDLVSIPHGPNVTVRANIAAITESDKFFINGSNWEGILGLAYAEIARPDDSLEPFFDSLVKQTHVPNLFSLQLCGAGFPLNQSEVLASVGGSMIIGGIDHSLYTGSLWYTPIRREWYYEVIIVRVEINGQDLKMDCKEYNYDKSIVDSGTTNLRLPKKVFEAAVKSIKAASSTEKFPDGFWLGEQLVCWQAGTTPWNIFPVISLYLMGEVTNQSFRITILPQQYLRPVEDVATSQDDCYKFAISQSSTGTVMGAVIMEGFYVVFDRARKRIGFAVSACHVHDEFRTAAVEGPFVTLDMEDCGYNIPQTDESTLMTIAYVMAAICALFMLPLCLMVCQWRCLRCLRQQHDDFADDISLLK

IC50 (BACE1 [1]) | IC50 (BACE1 [1]; Table IV, class symbols) | IC50 (BACE1 [2]; Table IV, class symbols) | IC50 (BACE1 [2]) | Compound | other results
< 0.1 µM | – | – | – | CC(C)(F)COc1cnc2c(c1)[C@]1(COC(N)=N1)c1cc(-c3ccc(F)nc3)ccc1O2 [compound 451] | IC50 (BACE1 [2]; HEK cells): < 0.1 µM
– | < 0.1 µM | < 0.1 µM | – | COC(C)(C)C#Cc1cc(F)c2c(c1)[C@]1(COC(N)=N1)c1cc(-c3ccc(F)nc3)ccc1O2 [compound 646] | –
– | < 0.1 µM | < 0.1 µM | – | COc1ccc(-c2ccc3c(c2)[C@]2(COC(N)=N2)c2cc(-c4cncnc4)ccc2O3)cc1 [compound 892] | –
< 0.1 µM | – | – | – | NC1=N[C@@]2(CO1)c1cc(-c3cccnc3)ccc1Oc1cnc(N3CCCCC3)cc12 [compound 445] | IC50 (BACE1 [2]; HEK cells): < 0.1 µM
0.1 to 1 µM | – | – | 1 to 5 µM | NC1=N[C@]2(CO1)c1cc(-c3cccnc3)ccc1Oc1cnc(Cl)cc12 [compound 953] | –
– | – | – | – | COc1ccc2c(c1)[C@]1(COC(N)=N1)c1cc(-c3cc(Cl)ccc3F)ccc1O2 [Example 12, (4S)-2′-(5-chloro-2-fluorophenyl)-7′-methoxyspiro[1,3-oxazole-4,9′-xanthen]-2-amine trifluoroacetic acid] | IC50 (BACE1 [1]; Table 1): 0.1 to 1 µM; IC50 (BACE1 [2]; Table 1, Aβ40, 24 h incubation): > 5 µM
– | 0.1 to 1 µM | 0.1 to 1 µM | – | NC1=N[C@]2(CO1)c1ccccc1Oc1cc(F)c(-c3cccnc3)cc12 [compound 569] | –
– | 0.1 to 1 µM | 0.1 to 1 µM | – | CC(C)(C)COc1ccc2c(c1)[C@]1(COC(N)=N1)c1cc(N3CCCCC3)ccc1O2 [compound 813] | –
< 0.1 µM | – | – | – | NC1=N[C@@]2(CO1)c1cc(-c3cccnc3)ccc1Oc1cnc(N3CCNCC3)cc12 [compound 439] | IC50 (BACE1 [2]; HEK cells): < 0.1 µM
< 0.1 µM | – | – | – | CC(C)(F)COc1cnc2c(c1)[C@]1(COC(N)=N1)c1cc(-c3ccccc3)ccc1O2 [compound 452] | IC50 (BACE1 [2]; HEK cells): 0.1 to 1 µM
0.1 to 1 µM | – | – | 0.1 to 1 µM | NC1=N[C@@]2(CO1)c1cc(-c3cccnc3)ccc1Oc1ccc(-c3cccnc3)nc12 [compound 989] | –
1 to 5 µM | – | – | 1 to 5 µM | NC1=N[C@]2(CO1)c1cc(-c3ccc(F)nc3)ccc1Oc1ncc(C3=CCOCC3)cc12 [compound 716] | –
< 0.1 µM | – | – | – | NC1=N[C@@]2(CO1)c1cc(-c3ccc(F)nc3)ccc1Oc1cnc(-c3ccc(F)nc3)cc12 [compound 433] | IC50 (BACE1 [2]; HEK cells): 0.1 to 1 µM
< 0.1 µM | – | – | < 0.1 µM | N#Cc1ccc(-c2ccc3c(c2)[C@@]2(COC(N)=N2)c2cc(-c4cccnc4)ccc2O3)cn1 [compound 683] | –
– | 0.1 to 1 µM | > 5 µM | – | Cc1nc(C)c(-c2ccc3c(c2)[C@@]2(COC(N)=N2)c2cc(OCC(C)(C)C)ccc2O3)s1 [compound 837] | –
– | 0.1 to 1 µM | 1 to 5 µM | – | CC(C)(C)COc1ccc2c(c1)[C@]1(COC(N)=N1)c1cc(-c3ncccn3)ccc1O2 [compound 885] | –
< 0.1 µM | – | – | < 0.1 µM | NC1=N[C@]2(CO1)c1cc(C#CC3(O)COC3)ccc1Oc1ccc(-c3cccnc3)cc12 [compound 685] | –
< 0.1 µM | – | – | – | CC1(C)CC(c2cc(F)c3c(c2)[C@]2(COC(N)=N2)c2cc(-c4cncnc4)ccc2O3)=CCO1 [compound 465] | IC50 (BACE1 [2]; HEK cells): < 0.1 µM
0.1 to 1 µM | – | – | > 5 µM | NC1=N[C@]2(CO1)c1cc(CC(=O)O)ccc1Oc1ccc(-c3cncnc3)cc12 [compound 751] | –
– | – | – | – | C[C@H]1OC(N)=N[C@@]12c1cc(OCC(C)(C)C)ccc1Oc1ccc(-c3cncnc3)cc12 [126d] | IC50 (BACE1 [1]; Table III, IC50's in uM ranges): < 0.1 µM; IC50 (BACE1 [2]; Table III, IC50's in uM ranges): < 0.1 µM
– | < 0.1 µM | < 0.1 µM | – | CC(=O)c1cccc(-c2ccc3c(c2)[C@]2(COC(N)=N2)c2cc(-c4cncnc4)ccc2O3)c1 [compound 889] | –
0.1 to 1 µM | – | – | 0.1 to 1 µM | CC(C)(C)CCOc1nccc2c1[C@]1(COC(N)=N1)c1cc(-c3cccnc3)ccc1O2 [compound 932] | –
0.1 to 1 µM | – | – | 1 to 5 µM | CC(C)(C)C#Cc1cnc2c(c1)[C@@]1(COC(N)=N1)c1cc(Oc3ccccn3)ccc1O2 [compound 927] | –
– | – | – | – | CC(C)(C)C#Cc1ccc2c(c1)[C@@]1(COC(N)=N1)c1cc(-c3ccc(F)nc3)ccc1O2 [147b] | IC50 (BACE1 [1]; Table III, IC50's in uM ranges): < 0.1 µM; IC50 (BACE1 [2]; Table III, IC50's in uM ranges): 0.1 to 1 µM
– | > 5 µM | > 5 µM | – | NC1=N[C@@]2(CO1)c1cc(Br)ccc1Oc1cnc(Cl)cc12 [compound 548] | –
– | – | – | – | NC1=N[C@]2(CO1)c1cc(OCC(C(F)(F)F)C(F)(F)F)ccc1Oc1ccc(-c3cncnc3)cc12 [compound 163] | IC50 (BACE1 [1]; Table III, IC50's in uM ranges): 0.1 to 1 µM; IC50 (BACE1 [2]; Table III, IC50's in uM ranges): 0.1 to 1 µM
